Test results as given in patent publication US9814732B2, “Ulipristal acetate for prevention and treatment of breast tumors” (LABORATOIRE HRA-PHARMA, priority 2012, dated 2017).

Columns and labels:
[1] = tested on: human breast tissue carrying BRCA1 mutations, xenografts; assay: Ki67 mitotic index in BRCA1 mutated human breast tissue xenografted in nude mice; type: in vivo; settings: E2+P+UPA vs E2+P, lobular and ductal cells, 28 days
Description: Mitotic index was calculated using the Ki67 antibody, and was determined for each breast tissue grafted into mice. Immunohistochemical analyses were performed using the BOND-MAX workstation (Leica, Nanterre, France). Paraffin sections of breast tissue xenografts were de-waxed and rehydrated before antigen retrieval using citrate retrieval solution (pH 6.0) for Ki67 antibody or EDTA retrieval solution (pH 9.0) for PR and ERalpha antibodies, for 30 min. Sections were then incubated with Ki67 at 1:100 (Novocastra, NCL5 L-Ki67-MM1), PR at 1:80 (Biogenex, MU-328-UC) or ER at 1:300 (Novocastra, NCL-L6 ER-6F11) monoclonal antibodies. For signal detection, the Kit Bond Polymer Refire Detection was used. Reagents were purchased from Menarini-Diagnostic (Rungis, France). A negative control (omitting the first antibody) was included in each set. For each marker, determination of the ratio of positive cells was performed on a total of 1 000 lobular and 1 000 ductal luminal cells in the 4 breast tissue fragments grafted into each mouse. For each experiment, the final percentages for each treatment were the mean of percentages obtained in the four mice per group.
Mutated breast tissue samples were obtained from 5 women (36-57 years old) carrying mutations for BRCA1.
Xenografts were performed as described above (Example 2). […]

HBE cells = assay: Tritiated thymidine incorporation (proliferation) in HBE cells; type: cell-based, human; settings: 96 h
Description: (§1) After seeding, cells were cultured for 24 h in serum and phenol red free medium. Then treatments were carried out in a phenol red free medium containing 5% dextran-charcoal stripped serum. Cells were treated with P or DEX (100 nM), alone or in combination with UPA, RU (1 nM to 1 μM) or CDB-3877 (100 nM). Control cells were treated with ethanol, at […] 1:1000 final ethanol concentration alone as vehicle or E2 (10 nM).
(§2) After 24 h of hormonal treatment, cells were incubated with [methyl-1 3H] thymidine (Perkin Elmer, Courtaboeuf, France) for 48 h or 20 h for KBE or cancer cells, respectively at 37° C. After incubation cells were washed twice with PBS 1× and once with 5% trichloroacetic acid (TCA). Cells were incubated in 5% TCA for 15 min at 4° C. and lysed in NaOH 0.1 N for 30 min at 37° C. The total cell lysate was added to 5 ml of Ecolite scintillation liquid (MP biomedical, Illkirch, France) and radioactivity was counted with a β-counter HIDEX 300SL (ScienceTec, Courtaboeuf, France).

[2] = tested on: PR target genes (FASN, cyclin A, BCL2, ALPL); assay: qRT-PCR mRNA expression of PR target genes in HBE cells; type: cell-based, human
Description: as §1
(§3) Total RNA was extracted using TriZOL Reagent (Invitrogen, Cergy-Pontoise, France).
(§4) 2 μg of total RNA was subjected to reverse transcription (RT) using random primers for 1 h at 37° C. 2 μl of RT product was diluted (1:10) and subjected to quantitative PCR using sequence specific primers (300 nM) and Brillant SYBR GREEN QPCR master mix (Fermentas, Saint-Rémy-lès-Chevreuse, France) on an Mx3000P apparatus (Agilent Technologies, Massy, France). Conditions were 1 cycle at 95° C. for 10 min followed by 40 cycles at 95° C. for 30 sec, 60° C. for 1 min and 72° C. for 30 sec. Gene expression values were normalized to the housekeeping gene 36B4. Time of steroid treatment was chosen to get the optimal stimulation for a given gene. ALPL and G0S8 mRNA were analyzed after 6 h of treatment. IEX-1, FASN, and BCL2 were analyzed after 24 h of treatment. Cyclin A mRNA was analyzed after 24 h for GR responses or 48 h for PR responses.

[3] = tested on: GR target genes (IEX-1, G0S8, cyclin A, BCL2); assay: qRT-PCR mRNA expression of GR target genes in MCF-7 cells; type: cell-based, human
Description: as §1, §3, §4

GR = biological target: T1, GR (Homo sapiens, UniProt P04150); assay: GRE-Luc reporter gene transactivation in HBE cells; type: cell-based; settings: DEX 100 nM, test compound 100 nM, read-out: inhibition of DEX induced luciferase transactivation (GRE-Luc)
T1 sequence (P04150 1-777): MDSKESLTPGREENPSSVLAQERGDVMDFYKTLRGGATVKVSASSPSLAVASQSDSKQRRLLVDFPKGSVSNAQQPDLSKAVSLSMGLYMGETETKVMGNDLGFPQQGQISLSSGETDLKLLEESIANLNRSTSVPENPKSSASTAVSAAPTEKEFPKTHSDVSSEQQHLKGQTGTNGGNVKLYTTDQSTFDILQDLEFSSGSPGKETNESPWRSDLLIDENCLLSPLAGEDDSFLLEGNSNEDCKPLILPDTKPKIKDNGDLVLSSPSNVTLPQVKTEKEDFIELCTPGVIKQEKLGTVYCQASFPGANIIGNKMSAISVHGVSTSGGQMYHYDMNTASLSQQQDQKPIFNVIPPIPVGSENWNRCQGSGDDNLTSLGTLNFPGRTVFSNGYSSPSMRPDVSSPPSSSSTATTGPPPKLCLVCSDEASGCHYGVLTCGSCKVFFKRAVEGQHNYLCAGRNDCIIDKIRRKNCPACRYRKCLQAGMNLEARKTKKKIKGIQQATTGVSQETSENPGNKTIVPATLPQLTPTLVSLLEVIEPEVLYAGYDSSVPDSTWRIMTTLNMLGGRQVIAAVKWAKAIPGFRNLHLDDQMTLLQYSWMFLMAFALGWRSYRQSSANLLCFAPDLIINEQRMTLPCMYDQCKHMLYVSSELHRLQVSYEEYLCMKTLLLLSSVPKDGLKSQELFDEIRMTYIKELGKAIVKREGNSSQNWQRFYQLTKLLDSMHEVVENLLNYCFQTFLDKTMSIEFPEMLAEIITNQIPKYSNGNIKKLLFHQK

MCF-7 cells = assay: Tritiated thymidine incorporation (proliferation) in MCF-7 cells; type: cell-based, human; settings: 48 h
Description: as §1, §2

[4] = P and/or UPA 100 nM, E2 10 nM, 24 h

## CC(=O)O[C@]1(C(C)=O)CCC2C3CCC4=CC(=O)CCC4=C3[C@@H](c3ccc(N(C)C)cc3)C[C@@]21C (stereo partly shown) [UPA, 17[…]-acetoxy-11[…]-[4-N,N-dimethylamino-phenyl)-19-norpregna-4,9-diene-3,20-dione]
[1]
  proliferation (Ki67 mitotic index) stimulated by E2+P: exhibited antiproliferative activity
HBE cells; 100 nM
  cell proliferation ([3H] thymidine incorporation), compound alone: had no effect on proliferation
HBE cells; DEX 100 nM + UPA 100 nM
  effect of UPA on DEX-mediated proliferation change: inhibited the strong proliferative activity induced by DEX
HBE cells; P 100 nM + UPA 100 nM
  effect of UPA on P-mediated proliferation change: did not inhibit the anti-proliferative effect induced by P
[2]; [4]
  BCL2 mRNA expression (PR response): did not reverse BCL2 mRNA down-regulation induced by P
  FASN mRNA expression: able to prevent P induction of FASN mRNA expression
[2]; P and/or UPA 100 nM, E2 10 nM, 48 h
  cyclin A mRNA expression (PR response): reversed P-induced cyclin A mRNA down-regulation
[2]; UPA 100 nM alone
  PR agonist activity on PR target genes: did not display any PR agonist activity
[3]; DEX and/or UPA 100 nM, 6 h, p<0.001
  G0S8 mRNA expression: anti-glucocorticoid activity was strong
[3]; DEX and/or UPA 100 nM, 24 h
  BCL2 mRNA expression (GR response): partially antagonized this effect
  IEX-1 mRNA expression: did not antagonize this response
  cyclin A mRNA expression (GR response): partially inhibited DEX effect on cyclin A mRNA expression
[3]; UPA 100 nM alone
  glucocorticoid agonist activity on GR target genes: did not display any glucocorticoid agonist activity
GR
  inhibition at 0.1 µM: 41.3 ± 5.8%
MCF-7 cells; 100 nM
  cell proliferation ([3H] thymidine incorporation), compound alone: had no effect on proliferation
MCF-7 cells; DEX 100 nM + UPA 100 nM
  effect of UPA on DEX-mediated proliferation change: tended to prevent the weak anti-proliferative effects of DEX
